Assay results: ChEMBL document CHEMBL3045544, “Synthesis, antimicrobial and antioxidant activities of some new indole derivatives containing pyridopyrimidine and pyrazolopyridine moieties” (Med Chem Res, 2013); call rule not given here

Columns and labels:
[1] = tested on: Radical scavenging activity; test: Antioxidant activity assessed as DPPH radical scavenging activity at 75 ug/ml by spectrophotometric analysis; format: functional
[2] = tested on: Aspergillus flavus; test: Antimicrobial activity against Aspergillus flavus MTCC 1973 assessed as diameter of growth inhibition zone at 500 ug/ml after 72 hr by cup-plate method; format: functional; settings: MTCC 1973, 72 h, read-out: DIZ
[3] = tested on: Aspergillus terreus; test: Antimicrobial activity against Aspergillus terreus MTCC 1782 assessed as diameter of growth inhibition zone at 500 ug/ml after 72 hr by cup-plate method; format: functional; settings: MTCC 1782, 72 h, read-out: DIZ
[4] = tested on: Aspergillus niger; test: Antimicrobial activity against Aspergillus niger MTCC 281 assessed as diameter of growth inhibition zone at 500 ug/ml after 72 hr by cup-plate method; format: functional; settings: MTCC 281, 72 h, read-out: DIZ
[5] = tested on: Radical scavenging activity; test: Antioxidant activity assessed as DPPH radical scavenging activity at 100 ug/ml by spectrophotometric analysis; format: functional
[6] = tested on: Aspergillus oryzae; test: Antimicrobial activity against Aspergillus oryzae MTCC 3567 assessed as diameter of growth inhibition zone at 500 ug/ml after 72 hr by cup-plate method; format: functional; settings: MTCC 3567, 72 h, read-out: DIZ
[7] = tested on: Pseudomonas aeruginosa; test: Antimicrobial activity against Pseudomonas aeruginosa MTCC 1688 assessed as diameter of growth inhibition zone at 500 ug/ml after 24 hr by cup-plate method; format: functional; settings: MTCC 1688, 24 h, read-out: DIZ
[8] = tested on: Klebsiella pneumoniae; test: Antimicrobial activity against Klebsiella pneumoniae NCTC 13368 assessed as diameter of growth inhibition zone at 500 ug/ml after 24 hr by cup-plate method; format: functional; settings: NCTC 13368, 24 h, read-out: DIZ
[9] = tested on: Staphylococcus aureus; test: Antimicrobial activity against Staphylococcus aureus ATCC 29513 assessed as diameter of growth inhibition zone at 500 ug/ml after 24 hr by cup-plate method; format: functional; settings: ATCC 29513, 24 h, read-out: DIZ
[10] = tested on: Escherichia coli; test: Antimicrobial activity against Escherichia coli MTCC 723 assessed as diameter of growth inhibition zone at 500 ug/ml after 24 hr by cup-plate method; format: functional; settings: MTCC 723, 24 h, read-out: DIZ
[11] = tested on: Radical scavenging activity; test: Antioxidant activity assessed as DPPH radical scavenging activity at 25 ug/ml by spectrophotometric analysis; format: functional
[12] = Antioxidant activity assessed as ferric ion reducing activity after 20 min by FRAP assay; format: functional
[13] = Metal chelating activity of the compound assessed as inhibition of ferrozine Fe2+ complex formation at 25 to 100 ug/ml after 10 min by spectrophotometric analysis; format: physicochemical

Structure (SMILES)	Activity [1] [%]	zone of inhibition at 500 µg/mL [2] [mm]	zone of inhibition at 500 µg/mL [3] [mm]	zone of inhibition at 500 µg/mL [4] [mm]	Activity [5] [%]	zone of inhibition at 500 µg/mL [6] [mm]	zone of inhibition at 500 µg/mL [7] [mm]	zone of inhibition at 500 µg/mL [8] [mm]	zone of inhibition at 500 µg/mL [9] [mm]	zone of inhibition at 500 µg/mL [10] [mm]	Activity [11] [%]	Activity [12]	inhibition (INH) [13]
O=c1[nH]cnc2nc(-c3ccccc3)cc(-c3c(-c4ccccc4)[nH]c4ccc(Cl)cc34)c12	74.1	9	10	12	78.8	12	8	14	5	12	–	–	–
Cc1ccc(-c2cc(-c3c(-c4ccccc4)[nH]c4ccc(Cl)cc34)c3c(=O)[nH]cnc3n2)cc1	–	8	9	11	–	10	5	11	8	10	61.5	–	–
Cc1ccc2[nH]c(-c3ccccc3)c(-c3cc(-c4ccccc4)nc4[nH]nc(N)c34)c2c1	75.2	6	5	2	68.2	14	5	9	10	8	–	Dose-dependent effect	–
Cc1ccc(-c2cc(-c3c(-c4ccccc4)[nH]c4ccc(C)cc34)c3c(=O)[nH]cnc3n2)cc1	–	5	10	10	–	8	10	12	8	5	74.4	–	–
Cc1ccc(-c2cc(-c3c(-c4ccccc4)[nH]c4ccc(Cl)cc34)c3c(N)n[nH]c3n2)cc1	–	5	11	8	–	10	9	9	10	6	–	Dose-dependent effect	Active
Nc1ncnc2nc(-c3ccc(Cl)cc3)cc(-c3c(-c4ccccc4)[nH]c4ccccc34)c12	–	8	10	10	–	2	2	5	10	8	66.8	–	–
